According to patent US20120202794A1 (priority 2011, published 2012):

Experiments:
[1] = system: HCV Replicon 1b; assay: HCV inhibition assay, HCV replicon 1b (Clone A or ET-lunet cells; RT-PCR or luciferase reporter); assay type: cell-based; conditions: Hepatitis C virus, 96 h, HCV replicon 1b; 4 days incubation; read-out: Replicon 1b potency EC90
Method in brief: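 Clone A (1500/well) or ET-lunet (3000/well) replicon cells treated with serially diluted compounds (0.5% DMSO, no G418) for 4 days at 37 °C. HCV RNA measured by one-step RT-PCR normalized to rRNA (ΔΔCt) or by luciferase luminescence versus DMSO controls; EC50/EC90 by curve fitting.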

[2] = Cell cytotoxicity assay (MTS), CC90 as reported in Table 1, cell line not stated; assay type: cell-based; conditions: human; MTS assay; 8 days incubation; cell line not given
Method in brief: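 Compounds, serially diluted from 100 μM, were incubated 8 days at 37° C with Huh7, HepG2 or BxPC3 (2×10^3 cells/well) or CEM (5×10^3 cells/well). Viability was read by MTS, 2 h, absorbance 490 nm. CC90 (90% inhibition) was taken against untreated cells.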

| Compound | EC90 [1] [nM] | CC90 at 8 days [2] [nM] |
| --- | --- | --- |
| CC(C)C[C@H]1C(=O)N[C@@H](c2ccsc2)CN1C(=O)/C=C/c1ccc(F)cc1F [Compound 451, (3S,6S)-4-((E)-3-(2,4-difluorophenyl)acryloyl)-3-isobutyl-6-(thiophen-3-yl)piperazin-2-one] | 125 | > 10000 |
| C/C=C/[C@H]1CN(C(=O)[C@@H]2C[C@H]2c2ccc(F)cc2)[C@@H](CC(C)C)C(=O)N1 [Compound 452, (3S,6S)-4-((1R,2R)-2-(4-fluorophenyl)cyclopropanecarbonyl)-3-isobutyl-6-((E)-prop-1-en-1-yl)piperazin-2-one] | 48 | > 10000 |
| Cc1ccc([C@H]2CN(C(=O)c3cc(-c4ccc(F)cc4)on3)[C@@H](CC(C)C)C(=O)N2)s1 [Compound 453, (3S,6R)-4-(5-(4-fluorophenyl)isoxazole-3-carbonyl)-3-isobutyl-6-(5-methylthiophen-2-yl)piperazin-2-one] | 680 | > 10000 |
| CC(C)C[C@H]1C(=O)NC(C2CCOCC2)CN1C(=O)c1cc(-c2ccc(F)cc2)on1 (stereo partly drawn) [Compound 456, (3S)-4-(5-(4-fluorophenyl)isoxazole-3-carbonyl)-3-isobutyl-6-(tetrahydro-2H-pyran-4-yl)piperazin-2-one] | 194 | > 10000 |
| CSC[C@H]1C(=O)N[C@@H](c2ccccc2)CN1C(=O)[C@@H]1C[C@H]1c1ccc(F)cc1 [Compound 460, (3R,6S)-4-((1R,2R)-2-(4-fluorophenyl)cyclopropanecarbonyl)-3-((methylthio)-methyl)-6-phenylpiperazin-2-one] | 1160 | > 10000 |
| C=CC[C@H]1C(=O)N[C@@H](c2ccccc2)CN1C(=O)[C@@H]1C[C@H]1c1ccc(F)cc1 [Compound 462, (3S,6S)-3-allyl-4-((1R,2R)-2-(4-fluorophenyl)cyclopropanecarbonyl)-6-phenyl-piperazin-2-one] | 1520 | > 10000 |
| CC(C)C[C@H]1C(=O)N[C@@H](C2CCC2)CN1C(=O)[C@@H]1C[C@H]1c1ccc(F)cc1 [Compound 464, (3S,6S)-6-cyclobutyl-4-((1R,2R)-2-(4-fluorophenyl)cyclopropanecarbonyl)-3-isobutylpiperazin-2-one] | 830 | > 10000 |
| C=CC[C@H]1C(=O)N[C@@H](c2ccccc2)CN1C(=O)c1noc(-c2ccc(F)cc2)n1 [Compound 465, (3S,6S)-3-allyl-4-(5-(4-fluorophenyl)-1,2,4-oxadiazole-3-carbonyl)-6-phenyl-piperazin-2-one] | 290 | > 10000 |
| CSC[C@H]1C(=O)N[C@@H](c2ccccc2)CN1C(=O)c1noc(-c2ccc(F)cc2)n1 [Compound 466, (3R,6S)-4-(5-(4-fluorophenyl)-1,2,4-oxadiazole-3-carbonyl)-3-((methylthio)methyl)-6-phenylpiperazin-2-one] | 650 | > 10000 |
| CC(C)C[C@H]1C(=O)N[C@@H](C2CCC2)CN1C(=O)c1noc(-c2ccc(F)cc2)n1 [Compound 467, (3S,6S)-6-cyclobutyl-4-(5-(4-fluorophenyl)-1,2,4-oxadiazole-3-carbonyl)-3-isobutylpiperazin-2-one] | 250 | > 10000 |
| CSC[C@H]1C(=O)N[C@@H](c2ccccc2)CN1C(=O)c1cc(-c2ccc(F)cc2)on1 [Compound 468, (3R,6S)-4-(5-(4-fluorophenyl)isoxazole-3-carbonyl)-3-((methylthio)methyl)-6-phenylpiperazin-2-one] | 690 | > 10000 |
| O=C1N[C@@H](c2ccccc2)CN(C(=O)[C@@H]2C[C@H]2c2ccc(F)cc2)[C@H]1c1cccs1 [Compound 469, (3R,6S)-4-((1R,2R)-2-(4-fluorophenyl)cyclopropanecarbonyl)-6-phenyl-3-(thiophen-2-yl)piperazin-2-one] | 1060 | > 10000 |
